According to the CheMixHub viscosity set:
Several values for one entry are separate records, joined by “and”; a condition that tells them apart may be missing. Equal entries are not always repeated. ± gives the uncertainty stated by the source.

Assays:
[1] = xn = mol fraction of the nth substance listed

OCCCOCCCO
101 kPa
Conditions | viscosity [mPa·s]
293.15 K | 115 ± 2
298.15 K | 78.2 ± 0.7
303.15 K | 51.1 ± 0.3
308.15 K | 37.2 ± 0.3
313.15 K | 27.4 ± 0.2
318.15 K | 20.8 ± 0.1

OCCNCCO
viscosity
Conditions | 293.15 K | 298.15 K | 303.15 K | 308.15 K | 313.15 K | 318.15 K | 323.15 K
101 kPa | 841.5 ± 57 mPa·s and 742 ± 44 mPa·s | – | 365.7 ± 23 mPa·s and 379.3 ± 14 mPa·s | 263.1 ± 8.5 mPa·s | 179.8 ± 10 mPa·s and 186.4 ± 5 mPa·s | 134.5 ± 2.9 mPa·s | 89.7 ± 5 mPa·s and 111 ± 3.1 mPa·s and 98.85 ± 1.9 mPa·s
101.33 kPa | – | 566.3 ± 46 mPa·s | – | – | – | – | –

c1ccc2ncccc2c1
Conditions | viscosity
293.15 K, 101 kPa | 3.64 ± 0.04 mPa·s
293.25 K, 101 kPa | 3.635 ± 0.037 mPa·s
298 K, 101.3 kPa | 3.475 ± 0.028 mPa·s
298.15 K, 101.33 kPa | 3.36 ± 0.04 mPa·s
303 K, 101.3 kPa | 3.092 ± 0.026 mPa·s
303.05 K, 101 kPa | 2.943 ± 0.029 mPa·s
303.15 K, 101 kPa | 2.94 ± 0.03 mPa·s and 3.1 ± 0.08 mPa·s
303.15 K, 101.33 kPa | 3.01 ± 0.04 mPa·s
308 K, 101.3 kPa | 2.777 ± 0.023 mPa·s
308.15 K, 101.33 kPa | 2.68 ± 0.03 mPa·s
313 K, 101.3 kPa | 2.489 ± 0.021 mPa·s
313.15 K, 101 kPa | 2.385 ± 0.023 mPa·s and 2.384 ± 0.023 mPa·s
313.15 K, 101.33 kPa | 2.43 ± 0.03 mPa·s
318 K, 101.3 kPa | 2.243 ± 0.02 mPa·s and 2.242 ± 0.02 mPa·s
318.15 K, 101.33 kPa | 2.21 ± 0.03 mPa·s
323.15 K, 101.33 kPa | 2.03 ± 0.03 mPa·s

c1ccc2ncccc2c1 + Oc1ccccc1Cl
[1]
Conditions | viscosity [mPa·s]
293.15 K, 101 kPa, x2 = 0.1686 | 6.62 ± 0.07
293.15 K, 101 kPa, x2 = 0.3263 | 13 ± 0.17
293.15 K, 101 kPa, x2 = 0.4251 | 23.62 ± 0.4
293.15 K, 101 kPa, x2 = 0.4893 | 33.45 ± 0.69
293.15 K, 101 kPa, x2 = 0.5043 | 35.1 ± 0.69
293.15 K, 101 kPa, x2 = 0.534 | 36.9 ± 0.76
293.15 K, 101 kPa, x2 = 0.5506 | 37.25 ± 0.79
293.15 K, 101 kPa, x2 = 0.5803 | 36.62 ± 0.78
293.15 K, 101 kPa, x2 = 0.6353 | 31.62 ± 0.67
293.15 K, 101 kPa, x2 = 0.7227 | 21.85 ± 0.39
293.15 K, 101 kPa, x2 = 0.8671 | 9.95 ± 0.14
298 K, 101.3 kPa, x1 = 0.0761 | 4.871 ± 0.061
298 K, 101.3 kPa, x1 = 0.1549 | 7.882 ± 0.11
298 K, 101.3 kPa, x1 = 0.2343 | 11.68 ± 0.23
298 K, 101.3 kPa, x1 = 0.3348 | 19.63 ± 0.51
298 K, 101.3 kPa, x1 = 0.4286 | 26.3 ± 0.77
298 K, 101.3 kPa, x1 = 0.5274 | 21.74 ± 0.58
298 K, 101.3 kPa, x1 = 0.6364 | 12.94 ± 0.27
298 K, 101.3 kPa, x1 = 0.7447 | 8.205 ± 0.13
298 K, 101.3 kPa, x1 = 0.8898 | 4.628 ± 0.055
303 K, 101.3 kPa, x1 = 0.0761 | 4.063 ± 0.039
303 K, 101.3 kPa, x1 = 0.1549 | 6.073 ± 0.069
303 K, 101.3 kPa, x1 = 0.2343 | 9.042 ± 0.13
303 K, 101.3 kPa, x1 = 0.3348 | 14.39 ± 0.32
303 K, 101.3 kPa, x1 = 0.4286 | 18.2 ± 0.48
303 K, 101.3 kPa, x1 = 0.5274 | 16.12 ± 0.38
303 K, 101.3 kPa, x1 = 0.6364 | 10.29 ± 0.17
303 K, 101.3 kPa, x1 = 0.7447 | 6.433 ± 0.069
303 K, 101.3 kPa, x1 = 0.8898 | 4.058 ± 0.034
303.15 K, 101 kPa, x2 = 0.1686 | 4.87 ± 0.05
303.15 K, 101 kPa, x2 = 0.3263 | 9.11 ± 0.1
303.15 K, 101 kPa, x2 = 0.4251 | 14.4 ± 0.18
303.15 K, 101 kPa, x2 = 0.4893 | 17.92 ± 0.28
303.15 K, 101 kPa, x2 = 0.5043 | 18.4 ± 0.28
303.15 K, 101 kPa, x2 = 0.534 | 19 ± 0.3
303.15 K, 101 kPa, x2 = 0.5506 | 19.01 ± 0.3
303.15 K, 101 kPa, x2 = 0.5803 | 18.88 ± 0.29
303.15 K, 101 kPa, x2 = 0.6353 | 17.42 ± 0.25
303.15 K, 101 kPa, x2 = 0.7227 | 12.82 ± 0.17
303.15 K, 101 kPa, x2 = 0.8671 | 6.41 ± 0.08
308 K, 101.3 kPa, x1 = 0.0761 | 3.469 ± 0.032
308 K, 101.3 kPa, x1 = 0.1549 | 5.006 ± 0.046
308 K, 101.3 kPa, x1 = 0.2343 | 7.403 ± 0.087
308 K, 101.3 kPa, x1 = 0.3348 | 11.49 ± 0.2
308 K, 101.3 kPa, x1 = 0.4286 | 14.09 ± 0.3
308 K, 101.3 kPa, x1 = 0.5274 | 12.37 ± 0.24
308 K, 101.3 kPa, x1 = 0.6364 | 8.401 ± 0.11
308 K, 101.3 kPa, x1 = 0.7447 | 5.506 ± 0.045
308 K, 101.3 kPa, x1 = 0.8898 | 3.581 ± 0.03
313 K, 101.3 kPa, x1 = 0.0761 | 2.998 ± 0.027
313 K, 101.3 kPa, x1 = 0.1549 | 4.205 ± 0.04
313 K, 101.3 kPa, x1 = 0.2343 | 6.048 ± 0.061
313 K, 101.3 kPa, x1 = 0.3348 | 9.267 ± 0.14
313 K, 101.3 kPa, x1 = 0.4286 | 11.03 ± 0.19
313 K, 101.3 kPa, x1 = 0.5274 | 9.852 ± 0.15
313 K, 101.3 kPa, x1 = 0.6364 | 7.017 ± 0.074
313 K, 101.3 kPa, x1 = 0.7447 | 4.762 ± 0.041
313 K, 101.3 kPa, x1 = 0.8898 | 3.171 ± 0.027
313.15 K, 101 kPa, x2 = 0.1686 | 3.71 ± 0.04
313.15 K, 101 kPa, x2 = 0.3263 | 6.35 ± 0.06
313.15 K, 101 kPa, x2 = 0.4251 | 8.96 ± 0.09
313.15 K, 101 kPa, x2 = 0.4893 | 10.47 ± 0.13
313.15 K, 101 kPa, x2 = 0.5043 | 10.73 ± 0.12
313.15 K, 101 kPa, x2 = 0.534 | 10.95 ± 0.12
313.15 K, 101 kPa, x2 = 0.5506 | 10.98 ± 0.12
313.15 K, 101 kPa, x2 = 0.5803 | 10.89 ± 0.12
313.15 K, 101 kPa, x2 = 0.6353 | 10 ± 0.11
313.15 K, 101 kPa, x2 = 0.7227 | 7.64 ± 0.08
313.15 K, 101 kPa, x2 = 0.8671 | 4.33 ± 0.05
318 K, 101.3 kPa, x1 = 0.0761 | 2.614 ± 0.022
318 K, 101.3 kPa, x1 = 0.1549 | 3.59 ± 0.031
318 K, 101.3 kPa, x1 = 0.2343 | 4.979 ± 0.049
318 K, 101.3 kPa, x1 = 0.3348 | 7.306 ± 0.11
318 K, 101.3 kPa, x1 = 0.4286 | 8.786 ± 0.15
318 K, 101.3 kPa, x1 = 0.5274 | 7.927 ± 0.12
318 K, 101.3 kPa, x1 = 0.6364 | 5.922 ± 0.054
318 K, 101.3 kPa, x1 = 0.7447 | 4.17 ± 0.031
318 K, 101.3 kPa, x1 = 0.8898 | 2.824 ± 0.022
